The values below come from US12534438B2, “Cannabinoid derivative as a pharmaceutically active compound and method of preparation thereof” (priority 2020, dated 2026).

Molecules are shown by their SMILES. Like-named read-outs stand apart in the source and are kept apart here.

Series [1] is described as follows: Plasma pharmacokinetics following oral dose administration to male Wistar Han rats. Type of series: in vivo. The settings on record: rat, oral gavage; for half-life / AUC(0-inf) / AUC(0-t) / Cmax / Tmax: plasma. Here is the method:
The plasma pharmacokinetics of compound 1 was assessed following oral dose administration to male Wistar Han Rats.
The Wistar Han Rat was chosen as the animal model for this study as it is an accepted rodent species for preclinical toxicity testing by regulatory agencies. Animals were socially housed (up to 3 animals of the same group) in polycarbonate cages containing appropriate bedding equipped with water bottles and may be provided with items such as devices for hiding in, paper and/or objects for chewing, unless contraindicated by study procedures. Pelleted rodent diet were provided ad libitum throughout the study, except during designated procedures.
The 9 male animals were 8 to 10 weeks old at initiation of dosing.
Vehicle: 1% Ethanol/12% Kolliphor HS-15/87% Saline (w/w/v).
Dose formulation was prepared as follows: test item was dissolved in ethanol. Kolliphor HS-15 and saline was heated separately to 60° C., and the required amount of heated Kolliphor HS-15 added to the test item/ethanol solution. The mixture was stirred at until homogenous. Hot saline was added to the mixture to meet dose level requirements, and stirred at 60° C. until a homogenous solution. Prior to release, the formulations were allowed to cool to 40° C. Subsequently, the formulations were stored at room temperature until dosing.
Groups 1, 2 and 3: The test item was administered to the appropriate animals by oral gavage. The dose was given using a plastic feeding tube.
PK Sample Collection: From animals in Group 1 to 3 blood was collected according to the PK sample collection table (outlined in Table 3). Approximately 0.2 mL blood samples was taken from the jugular vein and collected into tubes containing K2 EDTA as anti-coagulant and stored on ice.
Sample Processing and Storage: Whole blood was processed to plasma by centrifugation (3000 g for 10 minutes at 5° C.) within 1 hour of collection. Plasma samples were transferred into labelled polypropylene tubes and stored at <−75° C. until shipment.

Series [2] has as its system mouse model of generalised seizure (tonic hind limb extensor convulsions). The series can be described thus: Maximal electroshock seizure threshold (MEST) test in the mouse. The settings on record: 30 min post dose. Here is the method:
The efficacy of the cannabinoid derivative according to formula (I) was tested in a mouse model of generalised seizure, the maximal electroshock seizure threshold (MEST) test.
The maximal electroshock seizure threshold (MEST) test is widely utilized preclinically to evaluate pro- or anti-convulsant properties of test compounds (Loscher et al., 1991).
In the MEST test the ability of a drug to alter the seizure threshold current required to induce hind limb tonic extensor convulsions is measured according to an “up and down” method of shock titration (Kimball et al., 1957). An increase in seizure threshold is indicative of anti-convulsant effect.
The ability of a test compound to alter the stimulus intensity, expressed as current (mA), required to induce the presence of tonic hind limb extensor convulsions, is assessed in the MEST.
Naïve mice were acclimatised to the procedure room in their home cages for up to 7 days, with food and water available ad libitum.
All animals were weighed at the beginning of the study and randomly assigned to treatment groups based on a mean distribution of body weight across groups.
The first animal within a treatment group was given a shock at the expected or estimated CC50 current. For subsequent animals, the current was lowered or raised depending on the convulsions outcome from the preceding animal, in intervals of 5 mA.
Data generated from each treatment group were used to calculate the CC50±SEM values for the treatment group.
Vehicle: (5% ethanol, 10% solutol, 85% Saline) was prepared as follows: 1 mL of ethanol, 2 mL of solutol were warmed to 60° C., in 17 mL of saline (1:2:17).
The test compound, described herein as compound 1, is as shown as formula (I). Test compound was administered at 2, 20 and 200 mg/kg (i.p.) in a 1:2:17 ethanol:solutol:0.9% saline formulation.
The data for each treatment group were recorded as the number of +'s and 0's at each current level employed and this information is then used to calculate the CC50 value (current required for 50% of the animals to show seizure behaviour)±standard error.
Test compound effects were also calculated as percentage change in CC50 from the vehicle control group.
Significant difference between drug-treated animals and controls were assessed according to Litchfield and Wilcoxon (1949).

The mark [3] stands for this setting: male, Wistar Han, in vivo, po, 15 mg/kg, 15 mg/kg (measured dose 15 mg/kg).
Setting [4] is: male, Wistar Han, in vivo, po, 45 mg/kg (measured dose 101 mg/kg).
[5] abbreviates: male, Wistar Han, in vivo, po, 150 mg/kg (measured dose 204 mg/kg).

`C=C(C)[C@@H]1CCC(C)=C[C@H]1c1c(O)cc(-c2cnn(C)c2)cc1O` [Compound 1, (1′R,2′R)-5′-methyl-4-(1-methyl-1H-pyrazol-4-yl)-2′-(prop-1-en-2-yl)-1′,2′,3′,4′-tetrahydro-[1,1′-biphenyl]-2,6-diol]: the half-life in series [1] (male, Wistar Han, in vivo, 15 mg/kg (measured dose 15 mg/kg)) is 3.3 h; in series [1] (male, Wistar Han, in vivo, 45 mg/kg (measured dose 101 mg/kg)) it was 3.6 h; in series [1] (male, Wistar Han, in vivo, 150 mg/kg (measured dose 204 mg/kg)), 4.3 h. The AUC(0-inf) in series [1] (setting [3]) amounted to 5330 ng·h/mL; in series [1] (setting [4]), 48300 ng·h/mL; in series [1] (setting [5]), 105000 ng·h/mL. In addition, the figures for the exposure AUC(0-t) in series [1] (setting [3]), in series [1] (setting [4]) and in series [1] (setting [5]) were 4250 ng·h/mL, 47900 ng·h/mL and 101000 ng·h/mL, respectively. In addition, the highest concentration (Cmax) in series [1] (setting [3]) amounted to 1130 ng/mL; in series [1] (setting [4]) it was 4010 ng/mL; in series [1] (setting [5]), 6730 ng/mL. Besides, the time of peak concentration (Tmax) was 1 h in series [1] (setting [3]), 1 h in series [1] (setting [4]) and 8 h in series [1] (setting [5]). The bioavailability is 69.6% in series [1] (male, Wistar Han, in vivo, po, 15 mg/kg, 15 mg/kg (measured dose 15 mg/kg), read-out: Bioavailability); 96.4% in series [1] (male, Wistar Han, in vivo, po, 45 mg/kg (measured dose 101 mg/kg), read-out: Bioavailability); 107% in series [1] (male, Wistar Han, in vivo, po, 150 mg/kg (measured dose 204 mg/kg), read-out: Bioavailability); “high” in series [1] (across concentrations (15, 45, 150 mg/kg)). Also, the “CC50 +/- SEM” value in series [2] (2 mg/kg i.p.) is reported as 30.8 ± 1.0 mA; in series [2] (20 mg/kg i.p.), 52.5 ± 1.3 mA; in series [2] (200 mg/kg i.p.), 197.5 ± 20.4 mA. For the same molecule, the “% change from vehicle” value was determined as 27% in series [2] (CC50, 2 mg/kg i.p.); 116% in series [2] (CC50, 20 mg/kg i.p.); 712% in series [2] (CC50, 200 mg/kg i.p.).
Take `CN1C(=O)CN=C(c2ccccc2)c2cc(Cl)ccc21` [Diazepam, diazepam, reference compound]: the “% change from vehicle” value in series [2] (CC50, diazepam 2.5 mg/kg i.p.) was found to be 223%.
